Reference: PubChem BioAssay AID1963441 (Molecular Pharmacology Branch, DTP, NCI, 2024)
Several values for one entry are separate records, joined by “and”; a condition that tells them apart may be missing. Identical values can stand only once. Values belong to the compound of their own block, whether it stands above or below them.

System: NCI-H1876 complex spheroid growth, % test/control
Experiment: Anticancer human tumor NCI-H1876 cell line growth inhibition [Asc];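 further: compound exposure lasted 7 days starting three days after seeding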;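 on viability, T/C: 100% = DMSO vehicle control wells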
Details: for viability, T/C: stronger effect = lower value
Summary of the method: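 Concentration series start at each agent's clinical Cmax, or at 10 microM when none is established, and drop in half-log steps; agents are applied alone or together to complex spheroids built with HUVEC and hMSC.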

Compound: Cc1nc(N2CCC3(CC2)COC(C)C3N)c(CO)nc1Sc1ccnc(N)c1Cl (stereo unspecified)
viability, T/C (compound 0.00949 µM): 102% and 105% and 103%
viability, T/C (compound 0.03 µM): 92.8% and 87.9% and 89.1%
viability, T/C (compound 0.0949 µM): 103% and 84.3% and 92.5%
viability, T/C (compound 0.3 µM): 79.5% and 84.7% and 86%
viability, T/C (compound 0.949 µM): 78.4% and 84% and 94.5%
viability, T/C (compound 3 µM): 75.5% and 87.1% and 88.2%
IC50 (curve of compound): > 3 µM

Compound: O=C(c1ccc(F)c(F)c1Nc1ccc(I)cc1F)N1CC(O)([C@@H]2CCCCN2)C1
viability, T/C (compound 0.00316 µM): 101% and 103% (2×)
viability, T/C (compound 0.01 µM): 86.9% and 95% and 94%
viability, T/C (compound 0.0316 µM): 93.7% and 92.9% and 99%
viability, T/C (compound 0.1 µM): 97.5% and 91.4% and 95%
viability, T/C (compound 0.316 µM): 86.5% and 84.5% and 83.9%
viability, T/C (compound 1 µM): 79.9% and 75.1% and 76.9%
IC50 (curve of compound): > 1 µM

Compound: Cc1nc(N2CCC3(CC2)COC(C)C3N)c(CO)nc1Sc1ccnc(N)c1Cl (stereo unspecified) + Cc1c(S(C)(=O)=O)c(-c2cc(F)cc(N3CCN(c4ccc(NS(=O)(=O)c5ccc(NC(CCN6CCC(C(=O)OCCCP(=O)(O)O)CC6)CSc6ccccc6)c(S(=O)(=O)C(F)(F)F)c5)cc4)CC3)c2)c(-c2ccc(Cl)cc2)n1C(C)C
IC50 (curve of first compound, second compound 0.0316 µM): > 3 µM
IC50 (curve of first compound, second compound 0.1 µM): > 3 µM
IC50 (curve of first compound, second compound 0.316 µM): > 3 µM
IC50 (curve of first compound, second compound 1 µM): > 3 µM
IC50 (curve of first compound, second compound 3.16 µM): > 3 µM
IC50 (curve of first compound, second compound 10 µM): > 3 µM
viability, T/C (second compound 0.0316 µM, first compound 0.00949 µM): 106%
viability, T/C (second compound 0.0316 µM, first compound 0.03 µM): 86.8%
viability, T/C (second compound 0.0316 µM, first compound 0.0949 µM): 90.2%
viability, T/C (second compound 0.0316 µM, first compound 0.3 µM): 78.7%
viability, T/C (second compound 0.0316 µM, first compound 0.949 µM): 83.2%
viability, T/C (second compound 0.0316 µM, first compound 3 µM): 79.4%
viability, T/C (second compound 0.1 µM, first compound 0.00949 µM): 95.7%
viability, T/C (second compound 0.1 µM, first compound 0.03 µM): 101%
viability, T/C (second compound 0.1 µM, first compound 0.0949 µM): 93.7%
viability, T/C (second compound 0.1 µM, first compound 0.3 µM): 88%
viability, T/C (second compound 0.1 µM, first compound 0.949 µM): 84.2%
viability, T/C (second compound 0.1 µM, first compound 3 µM): 82.6%
viability, T/C (second compound 0.316 µM, first compound 0.00949 µM): 81.8%
viability, T/C (second compound 0.316 µM, first compound 0.03 µM): 89.7%
viability, T/C (second compound 0.316 µM, first compound 0.0949 µM): 92.2%
viability, T/C (second compound 0.316 µM, first compound 0.3 µM): 75.7%
viability, T/C (second compound 0.316 µM, first compound 0.949 µM): 88.4%
viability, T/C (second compound 0.316 µM, first compound 3 µM): 81.6%
viability, T/C (second compound 1 µM, first compound 0.00949 µM): 94.2%
viability, T/C (second compound 1 µM, first compound 0.03 µM): 92%
viability, T/C (second compound 1 µM, first compound 0.0949 µM): 81.5%
viability, T/C (second compound 1 µM, first compound 0.3 µM): 83.8%
viability, T/C (second compound 1 µM, first compound 0.949 µM): 93.7%
viability, T/C (second compound 1 µM, first compound 3 µM): 74.2%
viability, T/C (second compound 3.16 µM, first compound 0.00949 µM): 90.1%
viability, T/C (second compound 3.16 µM, first compound 0.03 µM): 88.7%
viability, T/C (second compound 3.16 µM, first compound 0.0949 µM): 83.7%
viability, T/C (second compound 3.16 µM, first compound 0.3 µM): 84.9%
viability, T/C (second compound 3.16 µM, first compound 0.949 µM): 83.3%
viability, T/C (second compound 3.16 µM, first compound 3 µM): 80.7%
viability, T/C (second compound 10 µM, first compound 0.00949 µM): 103%
viability, T/C (second compound 10 µM, first compound 0.03 µM): 88.8%
viability, T/C (second compound 10 µM, first compound 0.0949 µM): 85.3%
viability, T/C (second compound 10 µM, first compound 0.3 µM): 92.4%
viability, T/C (second compound 10 µM, first compound 0.949 µM): 96.7%
viability, T/C (second compound 10 µM, first compound 3 µM): 70.3%

Compound: Cn1ncnc1[C@H]1c2n[nH]c(=O)c3cc(F)cc(c23)N[C@@H]1c1ccc(F)cc1
viability, T/C (compound 0.000316 µM): 93.5% and 106% and 102%
viability, T/C (compound 0.001 µM): 90.9% and 86.1% and 110%
viability, T/C (compound 0.00316 µM): 95.7% and 88.1% and 105%
viability, T/C (compound 0.01 µM): 102% and 96.1% and 94.6%
viability, T/C (compound 0.0316 µM): 98.4% and 99.3% and 105%
viability, T/C (compound 0.1 µM): 86% and 101% and 97.6%
IC50 (curve of compound): > 0.1 µM

Second part, led by results:

IC50 (curve of first compound, second compound 0.00949 µM): 6.65 µM
IC50 (curve of first compound, second compound 0.03 µM): 6.95 µM
IC50 (curve of first compound, second compound 0.0949 µM): 6.91 µM
IC50 (curve of first compound, second compound 0.3 µM): 6.79 µM
IC50 (curve of first compound, second compound 0.949 µM): 6.4 µM
IC50 (curve of first compound, second compound 3 µM): 5.67 µM
Compound: C=C(F)C(=O)N1CCN(c2nc(OCC3CCCN3C)nc3c2CCN(c2cccc4cccc(Cl)c24)C3)CC1CC#N (stereo unspecified) + CCN1C(C(=O)NC23CCC(C(=O)O)(CC2)CC3)C(c2cccc(Cl)c2F)C2(C(=O)Nc3cc(Cl)ccc32)C12CCCCC2
viability, T/C (second compound 0.00949 µM, first compound 0.0316 µM): 93.6%
viability, T/C (second compound 0.00949 µM, first compound 0.1 µM): 102%
viability, T/C (second compound 0.00949 µM, first compound 0.316 µM): 102%
viability, T/C (second compound 0.00949 µM, first compound 1 µM): 107%
viability, T/C (second compound 0.00949 µM, first compound 3.16 µM): 107%
viability, T/C (second compound 0.00949 µM, first compound 10 µM): 21.5%
viability, T/C (second compound 0.03 µM, first compound 0.0316 µM): 104%
viability, T/C (second compound 0.03 µM, first compound 0.1 µM): 108%
viability, T/C (second compound 0.03 µM, first compound 0.316 µM): 109%
viability, T/C (second compound 0.03 µM, first compound 1 µM): 110%
viability, T/C (second compound 0.03 µM, first compound 3.16 µM): 106%
viability, T/C (second compound 0.03 µM, first compound 10 µM): 24%
viability, T/C (second compound 0.0949 µM, first compound 0.0316 µM): 107%
viability, T/C (second compound 0.0949 µM, first compound 0.1 µM): 99.3%
viability, T/C (second compound 0.0949 µM, first compound 0.316 µM): 101%
viability, T/C (second compound 0.0949 µM, first compound 1 µM): 98.5%
viability, T/C (second compound 0.0949 µM, first compound 3.16 µM): 101%
viability, T/C (second compound 0.0949 µM, first compound 10 µM): 26%
viability, T/C (second compound 0.3 µM, first compound 0.0316 µM): 104%
viability, T/C (second compound 0.3 µM, first compound 0.1 µM): 92.1%
viability, T/C (second compound 0.3 µM, first compound 0.316 µM): 99.3%
viability, T/C (second compound 0.3 µM, first compound 1 µM): 110%
viability, T/C (second compound 0.3 µM, first compound 3.16 µM): 111%
viability, T/C (second compound 0.3 µM, first compound 10 µM): 22.9%
viability, T/C (second compound 0.949 µM, first compound 0.0316 µM): 111%
viability, T/C (second compound 0.949 µM, first compound 0.1 µM): 107%
viability, T/C (second compound 0.949 µM, first compound 0.316 µM): 108%
viability, T/C (second compound 0.949 µM, first compound 1 µM): 116%
viability, T/C (second compound 0.949 µM, first compound 3.16 µM): 109%
viability, T/C (second compound 0.949 µM, first compound 10 µM): 12.7%
viability, T/C (second compound 3 µM, first compound 0.0316 µM): 109%
viability, T/C (second compound 3 µM, first compound 0.1 µM): 109%
viability, T/C (second compound 3 µM, first compound 0.316 µM): 110%
viability, T/C (second compound 3 µM, first compound 1 µM): 112%
viability, T/C (second compound 3 µM, first compound 3.16 µM): 93.8%
viability, T/C (second compound 3 µM, first compound 10 µM): 7.68%

IC50 (curve of compound): 5.59 µM and 6 µM and 6.86 µM
Compound: C=C(F)C(=O)N1CCN(c2nc(OCC3CCCN3C)nc3c2CCN(c2cccc4cccc(Cl)c24)C3)CC1CC#N (stereo unspecified)
viability, T/C (compound 0.0316 µM): 94.3% and 102% and 97.8%
viability, T/C (compound 0.1 µM): 97.6% and 92.2% and 89.2%
viability, T/C (compound 0.316 µM): 101% and 95.3% and 93%
viability, T/C (compound 1 µM): 108% and 93% and 105%
viability, T/C (compound 3.16 µM): 98% and 90.9% and 102%
